In brackets after ≈: the same amount, converted by molar mass. Several values for one entry are separate records, joined by “and”; a condition that tells them apart may be missing. Equal entries are not always repeated. Where two headings read alike, the source gives them in different places.
Key:
Type in all cases: cell-based
HIV-1 (IIIB) = assay: inhibition of HIV-1(IIIB) (WT) induced syncytium formation in CEM cells
From the text: (§1) CEM cells were obtained from the American Tissue Cell Culture Collection (Rockville, Md.) . HIV-1 (IIIB) was originally obtained from the culture supernatant of persistently HIV-1-infected H9 cells and was provided by R. C. Gallo and M. Popovic (National Cancer Institute, National Institutes of Health, Bethesda, Md.).
(§2) CEM cells were suspended at ≈300,000 cells per ml of culture medium and infected with approximately 100 CCID50 (CCID50 being the 50% cell culture infective dose) of HIV-1(IIIB) (designated as "WT" in Table 3) or one of the HIV-1 RT mutant strains described above. Then 100 μl of the infected cell suspensions was added to 200 μl microtiter plate wells containing 100 μl of appropriate serial (5-fold) dilutions of the test compounds. The inhibitiory effect of the test compounds on HIV-1 induced syncytium formation in CEM cells was examined microscopically on day 4 post infection. The 50% effective concentration (EC50) was defined as the test compound concentration that inhibits syncytium formation in the HIV-1-infected cell cultures by 50%.

HIV-1/100-Ile = assay: inhibition of syncytium formation in CEM cells, HIV-1 RT mutant 100-Ile; conditions: Human immunodeficiency virus 1, CCRF-CEM, 96 h, read-out: EC50 100-Ile
From the text: as §1
(§3) The selection and characterization of the HIV-1 RT mutant strains were done as follows: HIV-1/100-Ile ("100-Ile") was selected for resistance against TIBO R82150 as described in Balzarini et al, Virology 192: 246-253 (1993); HIV-1/103-Asn ("103-Asn") was selected for resistance against TIBO R82913 as described in Balzarini et al, Virology 192: 246-253 (1993); HIV-1/106-Ala ("106-Ala") was selected for resistance against nevirapine as described in Balzarini et al, J. Virol. 67: 5353-5359 (1993); HIV-1/Lys-138 ("Lys-138") was selected for resistance against TSAO-m^3T as described in Balzarini et al, Virology 192: 246-253 (1993) and Balzarini et al, Proc. Nat. Acad. Sci. USA 90: 6952-6956 (1993); HIV-1/181-Cys ("181-Cys") was selected for resistance against pyridinone L-697,661 as described in Balzarini et al, Virology 192: 246-253 (1993); and HIV-1/188-His ("188-His") was selected for resistance against HEPT as described in Balzarini et al, Mol. Pharmocol. 44: 694-701 (1993). 188-His was then further converted to HIV-1/188-Leu ("188-Leu") upon further passage in cell culture in the absence of the HEPT. HIV-1/101-Glu ("101-Glu") and HIV-1/190-Glu ("190-Glu") were selected for resistance against the thiocarboxanilide derivative designated as UC38 as described in Balzarini et al, Antiviral Research 27: 219-236 (1995). HIV-1/184-Ile ("184-Ile") was selected for resistance against the combination of 3TC and TSAO-m^3 T as described in Balzarini et al, Molecular Pharm. 49: 882-890 (1996). HIV-1/184-Val ("184-Val") was selected for resistance against 3TC as described in Balzarini et al, Molecular Pharm. 49: 882-890 (1996).
as §2

HIV-1/101-Glu = assay: inhibition of syncytium formation in CEM cells, HIV-1 RT mutant 101-Glu; conditions: Human immunodeficiency virus 1, CCRF-CEM, 96 h, read-out: EC50 101-Glu
From the text: as §1, §3, §2

103-Ala = assay: inhibition of syncytium formation in CEM cells, HIV-1 RT mutant 103-Ala; conditions: Human immunodeficiency virus 1, CCRF-CEM, 96 h, read-out: EC50 103-Ala
HIV-1/106-Ala = assay: inhibition of syncytium formation in CEM cells, HIV-1 RT mutant 106-Ala; conditions: Human immunodeficiency virus 1, CCRF-CEM, 96 h, read-out: EC50 106-Ala
From the text: as §1, §3, §2

138-Lys = assay: inhibition of syncytium formation in CEM cells, HIV-1 RT mutant 138-Lys; conditions: Human immunodeficiency virus 1, CCRF-CEM, 96 h, read-out: EC50 138-Lys
From the text: as §1, §3, §2

HIV-1/181-Cys = assay: inhibition of syncytium formation in CEM cells, HIV-1 RT mutant 181-Cys; conditions: Human immunodeficiency virus 1, CCRF-CEM, 96 h, read-out: EC50 181-Cys
From the text: as §1, §3, §2

HIV-1/184-Ile = assay: inhibition of syncytium formation in CEM cells, HIV-1 RT mutant 184-Ile; conditions: Human immunodeficiency virus 1, CCRF-CEM, 96 h, read-out: EC50 184-IIe
From the text: as §1, §3, §2

HIV-1/184-Val = assay: inhibition of syncytium formation in CEM cells, HIV-1 RT mutant 184-Val; conditions: Human immunodeficiency virus 1, CCRF-CEM, 96 h, read-out: EC50 184-Val
From the text: as §1, §3, §2

HIV-1/188-His = assay: inhibition of syncytium formation in CEM cells, HIV-1 RT mutant 188-His; conditions: Human immunodeficiency virus 1, CCRF-CEM, 96 h, read-out: EC50 188-His
From the text: as §1, §3, §2

HIV-1/188-Leu = assay: inhibition of syncytium formation in CEM cells, HIV-1 RT mutant 188-Leu; conditions: Human immunodeficiency virus 1, CCRF-CEM, 96 h, read-out: EC50 188-Leu
From the text: as §1, §3, §2

HIV-1/190-Glu = assay: inhibition of syncytium formation in CEM cells, HIV-1 RT mutant 190-Glu; conditions: Human immunodeficiency virus 1, CCRF-CEM, 96 h, read-out: EC50 190-Glu
From the text: as §1, §3, §2

[1] = Human immunodeficiency virus 1, IIIB, CCRF-CEM, 96 h, Table 2, day 4 post infection, replicate values, read-out: EC50, Activity Against HIV-1 (IIIB)
[2] = Human immunodeficiency virus 1, IIIB, CCRF-CEM, 96 h, Table 3, HIV-1(IIIB), day 4 post infection, read-out: EC50 WT
[3] = Table 2, day 4 post infection, replicate values, read-out: EC50, Activity Against HIV-1 (IIIB)

Row | SMILES | EC50 (HIV-1 (IIIB); [1]) | EC50 (HIV-1 (IIIB); [2]) | EC50 (HIV-1/100-Ile) | EC50 (HIV-1/101-Glu) | EC50 (103-Ala) | EC50 (HIV-1/106-Ala) | EC50 (138-Lys) | EC50 (HIV-1/181-Cys) | EC50 (HIV-1/184-Ile) | EC50 (HIV-1/184-Val) | EC50 (HIV-1/188-His) | EC50 (HIV-1/188-Leu) | EC50 (HIV-1/190-Glu) | EC50 (HIV-1 (IIIB); [3])
1 | Cc1ccccc1OCc1cc(NC(=S)c2ccoc2C)ccc1Cl [Compound 8] | 0.107 µM | 0.022 µg/mL | 0.33 µg/mL | 1.5 µg/mL | 2 µg/mL (≈ 5.38 µM) | 1 µg/mL | 0.19 µg/mL | 0.95 µg/mL | 0.065 µg/mL | 0.02 µg/mL | 0.5 µg/mL | 0.7 µg/mL | ≥ 2 µg/mL | 
2 | Cc1occc1C(=S)Nc1ccc(Cl)c(COc2c(F)cccc2F)c1 [Compound 16] | 0.0286 µM | 0.0031 µg/mL | 0.08 µg/mL | 0.069 µg/mL | 0.6 µg/mL (≈ 1.52 µM) | 0.03 µg/mL | 0.018 µg/mL | 0.03 µg/mL | 0.011 µg/mL | 0.0036 µg/mL | 0.52 µg/mL | 0.95 µg/mL | > 2 µg/mL | 0.0392 µM
3 | Cc1ccc(Cl)c(OCc2cc(NC(=S)c3ccoc3C)ccc2Cl)c1 [Compound 37] |  | 0.025 µg/mL | 2.33 µg/mL | 1.4 µg/mL | > 2 µg/mL | > 2 µg/mL | 0.33 µg/mL | > 2 µg/mL | 0.14 µg/mL | 0.09 µg/mL | 0.33 µg/mL | 0.62 µg/mL | > 2 µg/mL | 0.0192 µM and 0.0766 µM
4 | Cc1occc1C(=S)Nc1ccc(Cl)c(COc2ccccc2CO)c1 [Compound 25] |  | 0.55 µg/mL | > 2 µg/mL | > 2 µg/mL | > 2 µg/mL | > 2 µg/mL | > 2 µg/mL | > 2 µg/mL | 1 µg/mL | 0.25 µg/mL | > 2 µg/mL | > 2 µg/mL | > 2 µg/mL | 3.14 µM and 1.09 µM and 1.49 µM and 1.15 µM and 1 µM
5 | Cc1occc1C(=S)Nc1ccc(Cl)c(COc2ccccc2Cl)c1 [Compound 6, N-3-((2-chlorophenoxy)methyl)-4-chlorophenyl-2-methyl-3-furancarbothioamide] | 0.0586 µM | 0.0067 µg/mL | 0.23 µg/mL | 0.11 µg/mL | 1.2 µg/mL (≈ 3.06 µM) |  | 0.025 µg/mL | 0.09 µg/mL | 0.047 µg/mL | 0.018 µg/mL | 0.053 µg/mL |  | > 2 µg/mL | 0.104 µM
6 | Cc1occc1C(=S)Nc1ccc(Cl)c(COc2cccc(C(F)(F)F)c2)c1 [Compound 5] | 3.88 µM | 0.5 µg/mL | > 2 µg/mL | > 2 µg/mL | > 2 µg/mL |  | 1.73 µg/mL | 0.33 µg/mL | > 2 µg/mL | 0.93 µg/mL | > 2 µg/mL |  | > 2 µg/mL | 4.11 µM and 3.84 µM
7 | CCc1ccccc1OCc1cc(NC(=S)c2ccoc2C)ccc1Cl [Compound 44] |  | 0.0065 µg/mL | 0.41 µg/mL | 0.65 µg/mL | > 2 µg/mL | 1.1 µg/mL | 0.16 µg/mL | > 2 µg/mL | 0.04 µg/mL | 0.018 µg/mL | 0.25 µg/mL | 0.35 µg/mL | > 2 µg/mL | 0.0307 µM and 0.018 µM and 0.0954 µM
8 | Cc1occc1C(=S)Nc1ccc(Cl)c(COc2ccccc2C#N)c1 [Compound 30] | 0.0635 µM | 0.006 µg/mL | 0.33 µg/mL | 0.63 µg/mL | > 2 µg/mL | 0.7 µg/mL | 0.042 µg/mL | 0.65 µg/mL | 0.03 µg/mL | 0.021 µg/mL | 0.35 µg/mL | 0.85 µg/mL | > 2 µg/mL | 0.0687 µM and 0.103 µM
9 | Cc1occc1C(=S)Nc1ccc(Cl)c(COc2ccccc2C(F)(F)F)c1 [Compound 46] |  | 0.0041 µg/mL | 0.11 µg/mL | 0.18 µg/mL | 0.55 µg/mL (≈ 1.29 µM) | 0.47 µg/mL | 0.03 µg/mL | 0.5 µg/mL | 0.018 µg/mL | 0.0093 µg/mL | 0.16 µg/mL | 0.19 µg/mL | > 2 µg/mL | 0.0393 µM and 0.0548 µM and 0.00914 µM
10 | Cc1occc1C(=S)Nc1ccc(Cl)c(COc2cccc(Cl)c2)c1 [Compound 7] |  | 0.09 µg/mL | 0.65 µg/mL | 2 µg/mL | ≥ 2 µg/mL |  | 0.33 µg/mL | 0.44 µg/mL | 0.4 µg/mL | 0.1 µg/mL | 0.95 µg/mL |  | ≥ 10 µg/mL | 0.0682 µM and 0.0525 µM and 0.432 µM

Reference: patent US6143780A, “N-arylmethylthioanilide compounds useful for the inhibition of the replication of HIV” (Uniroyal Chemical Company, Inc., priority 1999, dated 2000)
